Earlier results on 13 compounds are cited in patent US6552040B1, “Use of nitroxides in wound healing and in the prevention of photodamage” (priority 1999, dated 2003).

Data set [1] deals with UVB radiation-induced mouse skin damage. Particulars: mice, topical solution prior to UVB exposure, versus untreated mice.
The conditions of data set [2]: in vitro and in vivo.
For data set [3], the system named is mammalian cells.
The subject of data set [4] is radiation-induced alopecia. Particulars: field of heavily irradiated skin.

With `NC(N)=O` [urea], the “protection against UVB radiation skin damage” value in data set [1] was “no significant protection”. Regarding `Cc1c(C)c2c(c(C)c1O)CC[C@@](C)(CCC[C@H](C)CCC[C@H](C)CCCC(C)C)O2` [alphatocopherol], the “protection against UVB radiation skin damage” value in data set [1] is reported as “significantly less damage”.

As to `N[C@@H](CCC(=O)N[C@@H](CS)C(=O)NCC(=O)O)C(=O)O` [glutathione], in data set [1], the “protection against UVB radiation skin damage” value was “no significant protection”. Regarding `CC(C)(CO)[C@@H](O)C(=O)NCCC(=O)NCCS` [pantetheine], the “protection against UVB radiation skin damage” value in data set [1] is given as “no significant protection”. As for `CC1(C)CC(O)CC(C)(C)N1[O]` [Tempol, 4-hydroxy-2,2,6,6-tetramethyl-piperidinyloxy, free radical], the “protection against ionizing radiation” value in data set [2] is “both in vitro and in vivo protection”. For the same compound, the “protection of mammalian cells from hydrogen peroxide mediated cytotoxicity” value in data set [3] is listed as “protecting mammalian cells”. In addition, the “protection of mammalian cells from superoxide generated from hypoxanthine/xanthine oxidase” value in data set [3] (superoxide dismutase mimic) is listed as “protecting mammalian cells”. Further, the “protection against radiation-induced alopecia” value in data set [4] was “speeding the recovery of hair growth”. `CCCOC(=O)c1cc(O)c(O)c(O)c1` [propyl galate]: the “protection against UVB radiation skin damage” value in data set [1] is given as “significantly less damage”.

For the compound `Cc1c(C)c2c(c(C)c1O)CCC(C)(C(=O)O)O2` (stereo not shown) [Trolox], the “protection against UVB radiation skin damage” value in data set [1] is recorded as “significantly less damage”.

With `CC1=C(/C=C/C(C)=C/C=C/C(C)=C/C=C/C=C(C)/C=C/C=C(C)/C=C/C2=C(C)CCCC2(C)C)C(C)(C)CCC1` [beta-carotene], the “protection against UVB radiation skin damage” value in data set [1] was “no significant protection”. As for `N[C@@H](Cc1c[nH]cn1)C(=O)O` [histidine], in data set [1], the “protection against UVB radiation skin damage” value is “no significant protection”. As to `Cc1cc(C(C)(C)C)c(O)c(C(C)(C)C)c1` [BHT], in data set [1], the “protection against UVB radiation skin damage” value is reported as “no significant protection”. For `OC[C@@H](O)[C@@H](O)[C@H](O)[C@H](O)CO` [mannitol], the “protection against UVB radiation skin damage” value in data set [1] is reported as “no significant protection”. For the compound `O=C1O[C@H]([C@@H](O)CO)C(O)=C1O` [ascorbic acid], in data set [1], the “protection against UVB radiation skin damage” value is “significantly less damage”.

As to `C=CC(O)C(O)C=C` (stereo not shown) [divinylglycol], the “protection against UVB radiation skin damage” value in data set [1] is “no significant protection”.
